Values quoted from earlier work as cited in patent publication US10022348B2, “Topical solution of isotretinoin” (SUN PHARMACEUTICAL INDUSTRIES LIMITED, priority 2009, dated 2018).

System: patients with severe acne
Conditions: oral

SMILES: CC1=C(/C=C/C(C)=C/C=C/C(C)=C\C(=O)O)C(C)(C)CCC1 [isotretinoin, 13-cis retinoic acid]
- long-term remission: about 80 % of patients
